The values below are quoted from earlier work in patent publication US20110064803A1, “NANOPARTICULATE AND CONTROLLED RELEASE COMPOSITIONS COMPRISING VITAMIN K2” (ELAN PHARMA INTERNATIONAL LIMITED., priority 2005, published 2011).

Read-outs that look alike come from different tables or passages of the source.

For series [1] the following is noted: oral.
Assay in series [2]: not given
The source holds these as a separate data set.

`COC(=O)C(c1ccccc1)C1CCCCN1` (stereo not drawn) [methylphenidate, α-phenyl-2-piperidine acetic acid methyl ester]: the “Persistence of drug effects” value was 3 to 6 h in series [1] (conventional IR tablets) and “up to 8 hours” in series [1] (extended release formulations).

Regarding `CC(C)=CCC/C(C)=C/CC/C(C)=C/CC/C(C)=C/CC1=C(C)C(=O)c2ccccc2C1=O` [Vitamin K2], where the note is “ethanol (99.5)”, the “Solubility in ethanol (99.5)” value is recorded as “soluble”. For the same compound, the Solubility in hexane entry (hexane) is listed as “very soluble”. Under “methanol”, the Solubility in methanol entry is on record as “slightly soluble”. For the same compound, the Solubility in water entry (water) is “practically insoluble”. In addition, the Stability to light result in series [2] is “decomposes and the color becomes more intense by light”.
